Columns and labels:
[1] = Aqueous stability of CCI-779; type: physicochemical; details: cleavage of a lactone bond, forming ring opened seco-CCI-779
Description: (§1) One obstacle towards the formulation of CCI-779 is its poor aqueous solubility (less than 1 μg/ml), which makes its bioavailability low.

tumor cells = details: histologically diverse tumor cells; cited from earlier work
human tumor xenografts = details: nude mice, diverse histological types; cited from earlier work
[2] = Aqueous solubility of CCI-779; type: physicochemical; details: water (aqueous)
Description: as §1

- aqueous stability [1]: exhibits aqueous instability
- solubility [2]: < 1 µg/mL
Structure (SMILES): CO[C@H]1C[C@@H]2CC[C@@H](C)[C@@](O)(O2)C(=O)C(=O)N2CCCC[C@H]2C(=O)O[C@H]([C@H](C)C[C@@H]2CC[C@@H](OC(=O)C(C)(CO)CO)[C@H](OC)C2)CC(=O)[C@H](C)/C=C(\C)[C@@H](O)[C@@H](OC)C(=O)[C@H](C)C[C@H](C)/C=C/C=C/C=C/1C [CCI-779, rapamycin 42-ester with 3-hydroxy-2-(hydroxymethyl)-2-methylpropionic acid]
- inhibition of tumor cell growth in vitro (tumor cells): inhibit the growth of a number of histologically diverse tumor cells
- activity against human tumor xenografts (human tumor xenografts): has activity against human tumor xenografts of diverse histological types

From patent publication US20040077677A1, “Oral formulations” (Wyeth, priority 2002, published 2004)
